Legend:
[1] = test system: antibiotic binding protein; assay: Antibiotic residue test for β-lactams in milk (sequential assay; HRPO-labelled antibiotic binding protein, immobilized 7ACA-spacer-BSA); set-up: species or system Bacillus stearothermophilus; conditions: for sensitivity ppb: test according to Example 1, other β-lactams; for reader units expressed in %: measured at 650 nanometer
Experimental: A grown culture of an antibiotic sensitive microorganism in this example Bacillus stearothermophilus (continuous culture art. #108 Porton Products Ltd, UK) was lysed overnight at 4° C. with lysozyme, DNAse and triton X-100 in 0.1M phosphate pH 7.0. The lysate was centrifuged for 30 minutes at approximately 1600×g (4° C.). After centrifugation the supernatant was mixed with an antibiotic affinity gel matrix, for example to prepare a 7-aminocephalosporanic acid (7ACA) affinity gel matrix the following method was used.
The 7ACA-affigel and the supernatant of the lysed culture was mixed for 3 hours at 20° C. gently on a shaker. The gel was washed six times with 0.1M phosphate+1M NaCl pH 7.0. For each wash was used 500 ml.
In this example horse-radish peroxidase (HRPO) is used. 1 mg HRPO (suitable for labelling) in 1 ml of distilled water (d.i.-water) and 0.2 ml 0.1M Na-periodate was mixed 20 minutes at 20° C. and dialysed overnight at 4° C. against 0.001M Na-acetate pH 4.4. This dialysate was adjusted to pH 9.0-9.6 by adding 25 μl of 0.1M carbonate. Directly hereafter 1 mg abp (Pierce protein assay) was added into the dialysate. The mixture was gently shaken for 2 hours at room temperature. Thereafter 150 μl of 4 mg Na-borohydride/ml d.i.-water was added to the mixture, this was incubated for 2 hours at 4° C.
40 mg of 7ACA was added to 4 ml of 50 mM Hepes (pH 7.5) solution. After dissolving the pH was adjusted to pH 7.0 with 1N NaOH. Hereafter 20 mg BSA and 40 mg Bis(sulfosuccinicmidyl)suberate (spacer) and an extra 2 ml of 50 mM Hepes solution was added. The mixture was gently shaken for 45 minutes at 20° C.
0.125 ml dialysate (7ACA-spacer-BSA conjugate) was added to 500 ml carbonate pH 9.6. 0.5 ml of this solution was added to the polystyrene star tubes (NUNC MAXISORB®). Tubes were covered and incubated overnight at 4° C. After incubation the β-lactam spacer protein conjugate dilution was removed from the tubes and 2 ml 0.05M phosphate+0.5% BSA+2% sucrose+0.1M glycine pH 7.2 was added to each tube. After 1 hour at 20° C. the tubes were emptied and dried for 48 hours at 22°-27° C. with less than 30% humidity. Dried tubes are stable for at least 1 year at 4° C.
0.2 ml of milk sample and 0,2 ml of a diluted abp-enzyme conjugate was added to an empty reaction ampoule. After incubation for 2 minutes at 64° C. the contents of the tube was transferred to the coated tube. After the second incubation of 2 minutes at 64° C. the contents of the coated tube was dumped into the sink and the tubes were washed three times with 50×diluted wash solution by filling the tubes, dumping the contents into the sink and removing residuals by tapping on absorbent paper. After the wash, 0.5 ml of TM-blue® colour-substrate was added into the tube. This incubation for 4 minutes at room temperature was stopped by adding 0.5 ml of stop solution (1.5% NaF). The colour development at 650 nm was compared with an antibiotic standard tested along with the sample.

[2] = test system: anti-gentamycin-rabbit antibody; assay: Antibiotic residue test for gentamycin in milk (sequential assay; antibody/HRPO-protein A conjugate, immobilized gentamycin-spacer-BSA); type: binding; conditions: for reader units expressed in %: measured at 650 nanometer
Experimental: The gentamycin assay is in general developed with the same basics as the β-lactam-assay. We will therefore give in this example the same outline as the β-lactam assay of Example 1 with description of differences.
A commercial anti-gentamycin-rabbit antibody is obtained from Biodesign International, Kennebunkport, Me., U.S.A. The anti-gentamycin-rabbit antiserum is absorbed to remove the bovine serum albumin (BSA) carrier antibodies. A solution containing 10 mg/ml sulfosuccinicmidylsuberate-BSA and 2 mg of unreacted BSA is mixed with the raw antiserum in the ratio of 10 to 1. This removes all detectable reactivity with BSA.
Absorbed anti-gentamycin antiserum is reacted with horseradish peroxidase labelled Staphylococcus aureus protein A to form an antibiotic binding protein enzyme conjugate. An optimal ratio of antibody to protein A is determined by forming the assay with checkerboard titrations of the two components diluted in phosphate buffered saline containing 1% BSA.
In this example gentamycin is used for conjugation to Bovine Serum Albumin (BSA). A spacer between gentamycin and the BSA is used to obtain the best affinity and specificity. The spacer is the same as used in Example 1.
As described in the β-lactam test, the gentamycin-spacer-protein conjugate is coated to a solid phase.
The same test method as described in Example 1 for the β-lactam test can be used for the gentamycin test. However, this test uses all incubations at a temperature of 20° C.

Q: `CC1(C)S[C@@H]2[C@H](NC(=O)[C@H](N)c3ccccc3)C(=O)N2[C@H]1C(=O)O` [Ampicillin] was tested. Which sensitivity ppb [1] did it give?
A: The sensitivity ppb was 10 ppb.

Q: How did the sensitivity ppb [1] turn out when `CO/N=C(\C(=O)N[C@@H]1C(=O)N2C(C(=O)O)=C(CSC(=O)c3ccco3)CS[C@H]12)c1csc(N)n1` [Ceftiofur] was run?
A: The sensitivity ppb was 5 ppb.

Q: With `CC1(C)S[C@@H]2[C@H](NC(=O)[C@H](N)c3ccc(O)cc3)C(=O)N2[C@H]1C(=O)O` [Amoxicillin] as the molecule, how does the sensitivity ppb [1] read?
A: Its sensitivity ppb is 5 ppb.

Q: `CC1(C)S[C@@H]2[C@H](NC(=O)Cc3ccccc3)C(=O)N2[C@H]1C(=O)O` [Pen. G, benzylpenicillin] was tested. Which “reader units expressed in %” value ([1]; 1.25 ppb Pen. G present in sample, milk) did it give?
A: The value was 96%.

Q: What about the “reader units expressed in %” value ([1]; 2 ppb Pen. G present in sample, milk) of the same molecule?
A: Its value is 69%.

Q: And the “reader units expressed in %” value ([1]; 3 ppb Pen. G present in sample, milk)?
A: The value was 65%.

Q: And the “reader units expressed in %” value ([1]; 4 ppb Pen. G present in sample, milk)?
A: Its value is 51%.

Q: And the “reader units expressed in %” value ([1]; 5 ppb Pen. G present in sample, milk)?
A: The value was 47%.

Q: What about the “reader units expressed in %” value ([1]; 10 ppb Pen. G present in sample, milk) of the same molecule?
A: The value was 32%.

Q: And the “lowest detectable benzylpenicillin residue (test sensitivity)” value ([1]; milk, total incubation time 8 minutes (test time not exceeding about 12 minutes))?
A: The value was 5 ppb.

Q: What does the source list for gentamycin [gentamycine]?
A: reader units expressed in % ([2]; 2.5 ppb gentamycine present in sample): 55%; reader units expressed in % ([2]; 5 ppb gentamycine present in sample): 39%; reader units expressed in % ([2]; 10 ppb gentamycine present in sample): 31%; reader units expressed in % ([2]; 20 ppb gentamycine present in sample): 23%; reader units expressed in % ([2]; 30 ppb gentamycine present in sample): 20%; reader units expressed in % ([2]; 36 ppb gentamycine present in sample): 18%; detectable gentamycin residue, can be lowered to (referred to Table III) ([2]; milk, all incubations at 20° C.): 2.5 ppb; lowest detectable gentamycin residue ([2]; milk, total incubation time 8 minutes, all incubations at 20° C.): 30 ppb

Q: Which sensitivity ppb [1] does the source give for `CC(=O)OCC1=C(C(=O)O)N2C(=O)[C@@H](NC(=O)CSc3ccncc3)[C@H]2SC1` [Cephapirin] here?
A: Its sensitivity ppb is 5 ppb.

From US5434053A, “Detection of antibiotics” (Gist-Brocades N.V., priority 1992, dated 1995)
